Laboratory results taken from patent publication US20130018033A1, “RAF INHIBITOR COMPOUNDS AND METHODS OF USE THEREOF” (ARRAY BIOPHARMA INC., priority 2009, published 2013).
Read-outs that look alike come from different tables or passages of the source.

Key:
[1] = tested on: basal ERK1/2 phosphorylation in Malme-3M cells; experiment: Cellular ERK 1/2 phosphorylation assay (Example A1); type: cell-based; settings: Homo sapiens, 1 hour incubation, pERK normalized to total ERK, read-out: P-ERK Malme3-M IC50
Description: Inhibition of basal ERK1/2 phosphorylation was determined by the following in vitro […], which comprises incubating cells with a compound of Formula I for 1 hour and quantifying the fluorescent pERK signal on fixed cells and normalizing to total ERK signal.
Malme-3M cells were obtained from ATCC and grown in RPMI-1640 supplemented with 10% fetal bovine serum. Cells were plated in 96-well plates at 24,000 cells/well and allowed to attach for 16-20 hours at 37° C., 5% CO2. The media was removed, and DMSO-diluted compounds were added in RPMI-1640 at a final concentration of 1% DMSO. The cells were incubated with the compounds for 1 hour at 37° C., 5% CO2. The cells were washed with PBS and fixed in 3.7% formaldehyde in PBS for 15 minutes. This was followed by washing in PBS/0.05% Tween20 and permeabilizing in −20° C. 100% MeOH for 15 minutes. Cells were washed in PBS/0.05% Tween20 then blocked in Odyssey blocking buffer (LI-COR Biosciences) for 1 hour. Antibodies to phosphorylated ERK (1:400, Cell Signaling #9106, monoclonal) and total ERK (1:400, Santa Cruz Biotechnology #sc-94, polyclonal) were added to the cells and incubated 16-20 hours at 4° C. After washing with PBS/0.05% Tween20, the cells were incubated with fluorescently-labeled secondary antibodies (1:1000 goat anti-rabbit IgG-IRDye800, Rockland and 1:500 goat anti-mouse IgG-Alexa Fluor 680, Molecular Probes) for an additional hour. Cells were then washed and analyzed for fluorescence at both wavelengths using the Odyssey Infrared Imaging System (LI-COR Biosciences). Phosphorylated ERK signal was normalized to total ERK signal.

V600E full-length B-Raf = target: T1, V600E full-length B-Raf (Homo sapiens, UniProt P15056, V600E); experiment: B-Raf IC50 assay (Example A); type: biochemical
T1 construct: 1 μM FSBA-MEK and 20 nM V600E full-length B-Raf; made in house; host or cells: Sf9 insect cells (baculovirus)
T1 sequence (P15056 whole entry V600E): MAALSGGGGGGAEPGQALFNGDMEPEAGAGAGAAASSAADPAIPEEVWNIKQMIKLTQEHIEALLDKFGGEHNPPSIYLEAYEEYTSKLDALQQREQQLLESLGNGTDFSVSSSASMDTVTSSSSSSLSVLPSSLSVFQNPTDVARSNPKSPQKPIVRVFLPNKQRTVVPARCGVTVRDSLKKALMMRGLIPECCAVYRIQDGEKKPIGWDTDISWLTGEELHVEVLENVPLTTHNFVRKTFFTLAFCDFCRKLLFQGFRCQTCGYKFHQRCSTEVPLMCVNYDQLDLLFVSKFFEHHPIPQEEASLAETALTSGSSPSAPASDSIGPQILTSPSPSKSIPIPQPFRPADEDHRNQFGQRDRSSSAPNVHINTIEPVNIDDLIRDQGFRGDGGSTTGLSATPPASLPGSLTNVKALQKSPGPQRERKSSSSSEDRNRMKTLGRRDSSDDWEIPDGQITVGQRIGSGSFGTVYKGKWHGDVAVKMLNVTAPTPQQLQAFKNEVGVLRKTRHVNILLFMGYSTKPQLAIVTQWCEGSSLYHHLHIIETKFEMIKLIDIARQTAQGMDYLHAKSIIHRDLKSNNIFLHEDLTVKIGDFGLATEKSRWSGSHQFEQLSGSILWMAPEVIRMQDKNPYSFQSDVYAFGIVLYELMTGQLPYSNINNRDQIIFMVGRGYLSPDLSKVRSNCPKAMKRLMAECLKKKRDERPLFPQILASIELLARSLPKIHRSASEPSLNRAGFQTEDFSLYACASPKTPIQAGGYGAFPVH
Source text: Determining the activity of Raf in the sample is possible by a number of direct and indirect detection methods (US 2004/0082014). Activity of human recombinant B-Raf protein may be assessed in vitro by assay of the incorporation of radio labeled phosphate to recombinant MAP kinase (MEK), a known physiologic substrate of B-Raf, according to US 2004/0127496 and WO 03/022840. The activity/inhibition of V600E full-length B-Raf was estimated by measuring the incorporation of radio labeled phosphate from [γ-^33P]ATP into FSBA-modified wild-type MEK (see Example A).
Activity of human recombinant B-Raf protein may be assessed in vitro by assay of the incorporation of radio labeled phosphate to recombinant MAP kinase (MEK), a known physiologic substrate of B-Raf, according to US 2004/0127496 and WO 03/022840. Catalytically active human recombinant B-Raf protein is obtained by purification from sf9 insect cells infected with a human B-Raf recombinant baculovirus expression vector.
The activity/inhibition of V600E full-length B-Raf was estimated by measuring the incorporation of radio labeled phosphate from [γ-^33P]ATP into FSBA-modified wild-type MEK. The 30-μL assay mixtures contained 25 mM Na Pipes, pH 7.2, 100 mM KCl, 10 mM MgCl2, 5 mM β-glycerophosphate, […], 4 μM ATP, 500 nCi [γ-^33P]ATP, 1 μM FSBA-MEK and 20 nM V600E full-length B-Raf. Incubations were carried out at 22° C. in a Costar 3365 plate (Corning). Prior to the assay, the B-Raf and FSBA-MEK were preincubated together in assay buffer at 1.5×(20 μL of 30 nM and 1.5 μM, respectively) for 15 minutes, and the assay was initiated by the addition of 10 μL of 10 μM ATP. Following the 60-minute incubation, the assay mixtures were quenched by the addition of 100 μL of 25% TCA, the plate was mixed on a rotary shaker for 1 minute, and the product was captured on a Perkin-Elmer GF/B filter plate using a Tomtec Mach III Harvester. After sealing the bottom of the plate, 35 μL of Bio-Safe II (Research Products International) scintillation cocktail were added to each well and the plate was top-sealed and counted in a Topcount NXT (Packard).

[2] = B-Raf V600E assay of Example A, read-out: IC50
[3] = [γ-33P]ATP incorporation into FSBA-MEK, 4 μM ATP, read-out: BRAF V600E IC50

Row | SMILES | IC50 [1] [nM] | IC50 (V600E full-length B-Raf; [2]) [nM] | IC50 (V600E full-length B-Raf; [3]) [nM]
1 | CCCS(=O)(=O)Nc1ccc(F)c(NC(=O)c2cc(C#CCO)cc3c(N)ncnc23)c1F [Example 40, 4-Amino-6-(3-hydroxy-prop-1-ynyl)-quinazoline-8-carboxylic acid [2,6-difluoro-3-(propane-1-sulfonylamino)-phenyl]-amide] | 158 | < 100 | 2.2
2 | CC(C)CS(=O)(=O)Nc1ccc(F)c(NC(=O)c2cccc3c(N)ncnc23)c1Cl [Example 10, 4-Amino-quinazoline-8-carboxylic acid [2-chloro-6-fluoro-3-(2-methyl-propane-1-sulfonylamino)-phenyl]-amide] | 6.73 | < 100 | 0.55
3 | CCCS(=O)(=O)Nc1ccc(F)c(NC(=O)c2cc(F)cc3c(N)ncnc23)c1Cl [Example 78, 4-Amino-6-fluoro-quinazoline-8-carboxylic acid [2-chloro-6-fluoro-3-(propane-1-sulfonylamino)-phenyl]-amide] | 15.7 | < 100 | 0.49
4 | O=C(Nc1c(F)c(F)cc(NS(=O)(=O)CCCF)c1F)c1cccc2c(NC3CC3)ncnc12 [Example 51, 4-(Cyclopropylamino)-N-(2,3,6-trifluoro-5-(3-fluoropropylsulfonamido)phenyl)quinazoline-8-carboxamide] | 2310 | < 1000 | 143
5 | N#Cc1c(NS(=O)(=O)N2CCCC2)ccc(F)c1NC(=O)c1cccc2c(N)ncnc12 [Example 35, 4-Amino-quinazoline-8-carboxylic acid [2-cyano-6-fluoro-3-(pyrrolidine-1-sulfonylamino)-phenyl]-amide] | 7.48 | < 100 | 0.16
6 | Cc1ncnc2c(C(=O)Nc3c(F)ccc(NS(=O)(=O)CCCF)c3F)cccc12 [Example 61, 4-Methyl-quinazoline-8-carboxylic acid [2,6-difluoro-3-(3-fluoro-propane-1-sulfonylamino)-phenyl]-amide] | 116 | < 100 | 19.3
7 | CCCS(=O)(=O)Nc1ccc(F)c(NC(=O)c2cncc3c(N)ncnc23)c1F [Example 2, 4-Amino-pyrido[4,3-d]pyrimidine-8-carboxylic acid [2,6-difluoro-3-(propane-1-sulfonylamino)-phenyl]-amide] | 9.6 | < 100 | 1.25
8 | Nc1ncnc2c(C(=O)Nc3c(F)ccc(NS(=O)(=O)CC4CC4)c3F)cccc12 [Example 13, 4-Amino-quinazoline-8-carboxylic acid (3-cyclopropyl-methane-sulfonylamino-2,6-difluoro-phenyl)-amide] | 14.9 | < 100 | 3.8
9 | Cc1ncnc2c(C(=O)Nc3c(Cl)ccc(NS(=O)(=O)CCCF)c3F)cccc12 [Example 62, 4-Methyl-quinazoline-8-carboxylic acid [6-chloro-2-fluoro-3-(3-fluoro-propane-1-sulfonylamino)-phenyl]-amide] | 44 | < 100 | 3.07
10 | CCCS(=O)(=O)Nc1ccc(Cl)c(NC(=O)c2cccc3c(N)ncnc23)c1Cl [Example 7, 4-Amino-quinazoline-8-carboxylic acid [2,6-dichloro-3-(propane-1-sulfonylamino)-phenyl]-amide] | 7.2 | < 100 | 0.07
11 | Nc1ncnc2c(C(=O)Nc3c(F)ccc(NS(=O)(=O)CC4CC4)c3Cl)cccc12 [Example 16, 4-Amino-quinazoline-8-carboxylic acid (2-chloro-3-cyclopropyl-methane-sulfonylamino-6-fluoro-phenyl)-amide] | 15.2 | < 100 | 2.6
12 | Nc1ncnc2c(C(=O)Nc3c(F)ccc(NS(=O)(=O)CCCF)c3Cl)cccc12 [Example 24, 4-Amino-quinazoline-8-carboxylic acid [2-chloro-6-fluoro-3-(3-fluoro-propane-1-sulfonylamino)-phenyl]-amide] | 4.05 | < 100 | 0.14
13 | CCCS(=O)(=O)Nc1ccc(Cl)c(NC(=O)c2cccc3c(N)ncnc23)c1 [Example 22, 4-Amino-quinazoline-8-carboxylic acid [2-chloro-5-(propane-1-sulfonylamino)-phenyl]-amide] | 1110 | < 100 | 64.9
14 | CCCS(=O)(=O)Nc1cc(F)c(F)c(NC(=O)c2cccc3c(N)ncnc23)c1F [Example 9, 4-Amino-quinazoline-8-carboxylic acid [2,3,6-trifluoro-5-(propane-1-sulfonylamino)-phenyl]-amide] | 12 | < 100 | 0.39
15 | CCCS(=O)(=O)Nc1ccc(C)c(NC(=O)c2cccc3c(N)ncnc23)c1 [Example 21, 4-Amino-quinazoline-8-carboxylic acid [2-methyl-5-(propane-1 sulfonylamino)-phenyl]-amide] | 1320 | < 100 | 18.5
16 | CCCS(=O)(=O)Nc1ccc(F)c(NC(=O)c2cccc3c(N)ncnc23)c1 [Example 6, 4-Amino-quinazoline-8-carboxylic acid [2-fluoro-5-(propane-1-sulfonylamino)-phenyl]-amide] | 1720 | < 100 | 50.4
17 | C#Cc1c(NS(=O)(=O)CCC)ccc(Cl)c1NC(=O)c1cccc2c(N)ncnc12 [Example 31, 4-Amino-quinazoline-8-carboxylic acid [6-chloro-2-ethynyl-3-(propane-1-sulfonylamino)-phenyl]-amide] | 42 | < 100 | 0.4
18 | CCS(=O)(=O)Nc1ccc(F)c(NC(=O)c2cccc3c(N)ncnc23)c1F [Example 19, 4-Amino-quinazoline-8-carboxylic acid (3-ethanesulfonyl-amino-2,6-difluoro-phenyl)-amide] | 25.9 | < 100 | 4.97
19 | CCN(C)S(=O)(=O)Nc1ccc(F)c(NC(=O)c2cccc3c(N)ncnc23)c1Cl [Example 37, 4-Amino-N-(2-chloro-3-(N-ethyl-N-methylsulfamoylamino)-6-fluorophenyl)quinazoline-8-carboxamide] | 39.7 | < 100 | 21.5
20 | CCNc1ncnc2c(C(=O)Nc3c(F)c(F)cc(NS(=O)(=O)CCCF)c3F)cccc12 [Example 52, 4-Ethylamino-quinazoline-8-carboxylic acid [2,3,6-trifluoro-5-(3-fluoro-propane-1-sulfonylamino)-phenyl]-amide] | 5290 | < 1000 | 290
21 | CCCS(=O)(=O)Nc1cc(F)c(F)c(NC(=O)c2cccc3c(NN4CCOCC4)ncnc23)c1F [Example 47, 4-(Morpholin-4-ylamino)-quinazoline-8-carboxylic acid [2,3,6-trifluoro-5-(propane-1-sulfonylamino)-phenyl]-amide] | 1170 | < 1000 | 105
